According to ChEMBL document CHEMBL5113453, “Design, synthesis, and biological evaluation of a new series of pyrazole derivatives: Discovery of potent and selective JNK3 kinase inhibitors” (Bioorg Med Chem, 2022):

Experiments:
[1] = test system: HL-60(TB); test: Antiproliferative activity against human HL-60(TB) cells measured after 48 hrs by SRB assay; format: functional, cell-based
[2] = test system: K562; test: Antiproliferative activity against human K562 cells measured after 48 hrs by SRB assay; format: functional, cell-based
[3] = test system: MOLT-4; test: Antiproliferative activity against human MOLT-4 cells measured after 48 hrs by SRB assay; format: functional, cell-based
[4] = test system: SR; test: Antiproliferative activity against human SR cells measured after 48 hrs by SRB assay; format: functional, cell-based
[5] = test system: A549; test: Antiproliferative activity against human A549 cells measured after 48 hrs by SRB assay; format: functional, cell-based
[6] = test system: EKVX; test: Antiproliferative activity against human EKVX cells measured after 48 hrs by SRB assay; format: functional, cell-based
[7] = test system: HOP-62; test: Antiproliferative activity against human HOP-62 cells measured after 48 hrs by SRB assay; format: functional, cell-based
[8] = test system: NCI-H23; test: Antiproliferative activity against human NCI-H23 cells measured after 48 hrs by SRB assay; format: functional, cell-based
[9] = test system: NCI-H322M; test: Antiproliferative activity against human NCI-H322M cells measured after 48 hrs by SRB assay; format: functional, cell-based
[10] = test system: HCC 2998; test: Antiproliferative activity against human HCC 2998 cells measured after 48 hrs by SRB assay; format: functional, cell-based
[11] = test system: HCT-116; test: Antiproliferative activity against human HCT-116 cells measured after 48 hrs by SRB assay; format: functional, cell-based
[12] = test system: HCT-15; test: Antiproliferative activity against human HCT-15 cells measured after 48 hrs by SRB assay; format: functional, cell-based
[13] = test system: HT-29; test: Antiproliferative activity against human HT-29 cells measured after 48 hrs by SRB assay; format: functional, cell-based
[14] = test system: SW-620; test: Antiproliferative activity against human SW-620 cells measured after 48 hrs by SRB assay; format: functional, cell-based
[15] = test system: SF-268; test: Antiproliferative activity against human SF-268 cells measured after 48 hrs by SRB assay; format: functional, cell-based
[16] = test system: SF-295; test: Antiproliferative activity against human SF-295 cells measured after 48 hrs by SRB assay; format: functional, cell-based
[17] = test system: SF-539; test: Antiproliferative activity against human SF-539 cells measured after 48 hrs by SRB assay; format: functional, cell-based
[18] = test system: SNB-19; test: Antiproliferative activity against human SNB-19 cells measured after 48 hrs by SRB assay; format: functional, cell-based
[19] = test system: SNB-75; test: Antiproliferative activity against human SNB-75 cells measured after 48 hrs by SRB assay; format: functional, cell-based
[20] = test system: Malme-3M; test: Antiproliferative activity against human Malme-3M cells measured after 48 hrs by SRB assay; format: functional, cell-based
[21] = test system: SK-MEL-2; test: Antiproliferative activity against human SK-MEL-2 cells measured after 48 hrs by SRB assay; format: functional, cell-based
[22] = test system: SK-MEL-28; test: Antiproliferative activity against human SK-MEL-28 cells measured after 48 hrs by SRB assay; format: functional, cell-based
[23] = test system: SK-MEL-5; test: Antiproliferative activity against human SK-MEL-5 cells measured after 48 hrs by SRB assay; format: functional, cell-based
[24] = test system: UACC-257; test: Antiproliferative activity against human UACC-257 cells measured after 48 hrs by SRB assay; format: functional, cell-based
[25] = test system: UACC-62; test: Antiproliferative activity against human UACC-62 cells measured after 48 hrs by SRB assay; format: functional, cell-based
[26] = test system: OVCAR-5; test: Antiproliferative activity against human OVCAR-5 cells measured after 48 hrs by SRB assay; format: functional, cell-based
[27] = test system: OVCAR-8; test: Antiproliferative activity against human OVCAR-8 cells measured after 48 hrs by SRB assay; format: functional, cell-based
[28] = test system: SK-OV-3; test: Antiproliferative activity against human SK-OV-3 cells measured after 48 hrs by SRB assay; format: functional, cell-based
[29] = test system: ACHN; test: Antiproliferative activity against human ACHN cells measured after 48 hrs by SRB assay; format: functional, cell-based
[30] = test system: RXF 393; test: Antiproliferative activity against human RXF 393 cells measured after 48 hrs by SRB assay; format: functional, cell-based
[31] = test system: SN12C; test: Antiproliferative activity against human SN12C cells measured after 48 hrs by SRB assay; format: functional, cell-based
[32] = test system: TK-10; test: Antiproliferative activity against human TK-10 cells measured after 48 hrs by SRB assay; format: functional, cell-based
[33] = test system: UO-31; test: Antiproliferative activity against human UO-31 cells measured after 48 hrs by SRB assay; format: functional, cell-based
[34] = test system: DU-145; test: Antiproliferative activity against human DU-145 cells measured after 48 hrs by SRB assay; format: functional, cell-based
[35] = test system: BT-549; test: Antiproliferative activity against human BT-549 cells measured after 48 hrs by SRB assay; format: functional, cell-based
[36] = test system: MDA-MB-468; test: Antiproliferative activity against human MDA-MB-468 cells measured after 48 hrs by SRB assay; format: functional, cell-based
[37] = test system: WI-38; test: Antiproliferative activity against human WI-38 cells measured by MTT assay; format: functional, cell-based
[38] = target: T1, Mitogen-activated protein kinase 10 (Homo sapiens, UniProt P53779); test: Inhibition of JNK3 (unknown origin) at 1 uM relative to control
[39] = target: T1, Mitogen-activated protein kinase 10; test: Inhibition of JNK3 (unknown origin)

T1 sequence (P53779 whole entry): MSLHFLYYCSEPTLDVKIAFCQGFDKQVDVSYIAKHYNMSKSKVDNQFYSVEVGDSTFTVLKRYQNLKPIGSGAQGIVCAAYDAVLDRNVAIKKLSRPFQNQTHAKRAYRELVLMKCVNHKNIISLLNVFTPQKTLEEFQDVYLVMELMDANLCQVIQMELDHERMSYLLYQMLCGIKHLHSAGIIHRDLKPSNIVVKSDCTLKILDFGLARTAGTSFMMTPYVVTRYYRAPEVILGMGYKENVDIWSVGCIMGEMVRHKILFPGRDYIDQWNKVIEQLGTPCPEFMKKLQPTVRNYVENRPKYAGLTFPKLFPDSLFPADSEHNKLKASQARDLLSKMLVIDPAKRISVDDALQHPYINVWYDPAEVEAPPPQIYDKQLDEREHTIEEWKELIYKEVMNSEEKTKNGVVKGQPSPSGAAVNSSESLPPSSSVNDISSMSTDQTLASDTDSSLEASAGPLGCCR

`O=C(NCCCNc1cc(-c2cn(-c3ccccc3)nc2-c2cccc(O)c2)ccn1)Nc1ccc(F)cc1` gave an IC50 ([1]; HL-60, 48 h) of 2.15 µM, a TGI ([1]; HL-60, time 48 hrs) of 14.2 µM and an IC50 ([2]; K562, 48 h) of 0.81 µM. The TGI ([2]; K562, time 48 hrs) was > 14.2 µM, the IC50 ([3]; MOLT-4, 48 h) was 1.25 µM and the TGI ([3]; MOLT-4, time 48 hrs) was 15.6 µM. It also gave an IC50 ([4]; 48 h) of 1.51 µM, a TGI ([4]; time 48 hrs) of 13.8 µM and an IC50 ([5]; A549, 48 h) of 3.12 µM. For the same molecule, the TGI ([5]; A549, time 48 hrs) was > 21.7 µM, the IC50 ([6]; 48 h) was 2.74 µM and the TGI ([6]; time 48 hrs) was 9.51 µM. It also gave an IC50 ([7]; HOP-62, 48 h) of 3.24 µM, a TGI ([7]; HOP-62, time 48 hrs) of 9.26 µM and an IC50 ([8]; NCI-H23, 48 h) of 3.11 µM. It also gave a TGI ([8]; NCI-H23, time 48 hrs) of 7.65 µM, an IC50 ([9]; 48 h) of 3.7 µM and a TGI ([9]; time 48 hrs) of 12.4 µM. The IC50 ([10]; HCC 2998, 48 h) was 1.09 µM, the TGI ([10]; HCC 2998, time 48 hrs) was 4.05 µM and the IC50 ([11]; HCT-116, 48 h) was 1.62 µM. The TGI ([11]; HCT-116, time 48 hrs) was 5.82 µM, the IC50 ([12]; HCT-15, 48 h) was 0.94 µM and the TGI ([12]; HCT-15, time 48 hrs) was 4.04 µM. For the same molecule, the IC50 ([13]; HT-29, 48 h) was 1.09 µM, the TGI ([13]; HT-29, time 48 hrs) was 4.99 µM and the IC50 ([14]; SW-620, 48 h) was 3.04 µM. It also gave a TGI ([14]; SW-620, time 48 hrs) of 6.73 µM, an IC50 ([15]; SF-268, 48 h) of 2.61 µM and a TGI ([15]; SF-268, time 48 hrs) of 11.2 µM. For the same molecule, the IC50 ([16]; SF-295, 48 h) was 1.38 µM, the TGI ([16]; SF-295, time 48 hrs) was 4.84 µM and the IC50 ([17]; SF-539, 48 h) was 1.98 µM. It also gave a TGI ([17]; SF-539, time 48 hrs) of 5.38 µM, an IC50 ([18]; SNB-19, 48 h) of 3.29 µM and a TGI ([18]; SNB-19, time 48 hrs) of 9.75 µM. It also gave an IC50 ([19]; SNB-75, 48 h) of 0.54 µM, a TGI ([19]; SNB-75, time 48 hrs) of 3.18 µM and an IC50 ([20]; 48 h) of 0.83 µM. For the same molecule, the TGI ([20]; time 48 hrs) was 3.42 µM, the IC50 ([21]; SK-MEL-2, 48 h) was 4 µM and the TGI ([21]; SK-MEL-2, time 48 hrs) was 10.1 µM. It also gave an IC50 ([22]; SK-MEL-28, 48 h) of 2.54 µM, a TGI ([22]; SK-MEL-28, time 48 hrs) of 5.64 µM and an IC50 ([23]; SK-MEL-5, 48 h) of 1.64 µM. The TGI ([23]; SK-MEL-5, time 48 hrs) was 4.83 µM, the IC50 ([24]; UACC-257, 48 h) was 3.07 µM and the TGI ([24]; UACC-257, time 48 hrs) was 7.54 µM. It also gave an IC50 ([25]; UACC-62, 48 h) of 3.14 µM, a TGI ([25]; UACC-62, time 48 hrs) of 6.6 µM and an IC50 ([26]; OVCAR-5, 48 h) of 3.37 µM. It also gave a TGI ([26]; OVCAR-5, time 48 hrs) of 9.12 µM, an IC50 ([27]; OVCAR-8, 48 h) of 2.13 µM and a TGI ([27]; OVCAR-8, time 48 hrs) of 9.26 µM. It also gave an IC50 ([28]; SK-OV-3, 48 h) of 3.12 µM, a TGI ([28]; SK-OV-3, time 48 hrs) of 10.8 µM and an IC50 ([29]; 48 h) of 3.16 µM. The TGI ([29]; time 48 hrs) was 14.2 µM, the IC50 ([30]; RXF 393, 48 h) was 0.97 µM and the TGI ([30]; RXF 393, time 48 hrs) was 4.85 µM. It also gave an IC50 ([31]; 48 h) of 2.79 µM, a TGI ([31]; time 48 hrs) of 8.37 µM and an IC50 ([32]; TK-10, 48 h) of 6.78 µM. The TGI ([32]; TK-10, time 48 hrs) was 20.3 µM, the IC50 ([33]; UO-31, 48 h) was 1.58 µM and the TGI ([33]; UO-31, time 48 hrs) was 9.7 µM. The IC50 ([34]; DU-145, 48 h) was 4.22 µM, the TGI ([34]; DU-145, time 48 hrs) was 19.3 µM and the IC50 ([35]; BT-549, 48 h) was 2.18 µM. For the same molecule, the TGI ([35]; BT-549, time 48 hrs) was 11.6 µM, the IC50 ([36]; MDA-MB-468, 48 h) was 1.18 µM and the TGI ([36]; MDA-MB-468, time 48 hrs) was 4.66 µM. For the same molecule, the IC50 [37] was 16.8 µM, the inhibition [38] was 94% and the IC50 [39] was 0.0974 µM.
